US9464007B2, “Antifungal wallboards and building materials and methods for the production thereof” (priority 2004, dated 2016)
In brackets after ≈: the same amount, converted by molar mass. Several values for one entry are separate records, joined by “and”; a condition that tells them apart may be missing. Equal entries are not always repeated. Where two headings read alike, the source gives them in different places.

Tests used:
Type in all cases: cell-based
Aureobasidium pullulans [1] = assay: Synergy testing of 2-way mixtures, 24 well plates; details: A. pullulans
Description: (§1) For synergism testing of the 2-way mixtures 100 ul of each fungicide were filled into the 24 well plates (8 different rates) and 800 ul of 0.3% PDA media containing the spore suspension was added (see above). Different ratios of the 2 fungicide rates were tested at the same time.
(§2) Alternaria tenuissima, Penicillium citrinum, Stachybotrys chartarum, Aspergillus niger and Aureobasidium pullulans were separately cultivated on PDA media to […] sporulation. Spore suspensions were produced for each fungi.
(§3) For the mixtures of different fungicides the synergism was calculated based on the Colby equation, which is described below: […]
(§4) The fungicidal action to be expected, We, for a given combination of two fungicides can be calculated as follows (see COLBY, S. R. “Calculating synergistic and antagonistic response of herbicide combinations”. Weeds 15, pages 20-22; 1967): We=X+[Y×(100−X)/100] wherein:
(§5) If the activity actually observed is greater than the expected value We, there is a synergistic effect.
(§6) All rates below are expressed as mg ai/l (i.e. ppm).

Aspergillus niger [2] = assay: Synergy testing of 2-way mixtures, 24 well plates; details: A. niger; for inh % (DFZ alone): rate (DFZ) 0.8 mg ai/l
Description: as §1, §2, §3, §4, §5, §6

Penicillium citrinum [3] = assay: Synergy testing of 2-way mixtures, 24 well plates; details: P. citrinum, PPZ + DFZ test
Description: as §1, §2, §3, §4, §5, §6

Stachybotrys chartarum [4] = assay: Fungal growth on agar medium containing fungicide, petri dish, visual assessment; details: for EC50: 528 h, read-out: Concentration required for 50% Activity; for EC50 / Concentration required for 80% Activity: after 22 days at 25° C.
Description: (§7) A fungal growth medium was made comprising yeast extract (4 g) agar (8 g), magnesium sulphate (0.2 g), sodium nitrate (2.4 g), potassium chloride (0.2 g), potassium dihydrogen orthophosphate (0.6 g), glycerol (8 ml), distilled water (390 ml). Fungicides as set out in Tables 1 to 4 were added at levels of 5000, 100, 10, 1, 0.1 and 0.01 mg fungicide/liter of growth medium to give six different growth medium compositions for each fungicide. These growth media containing the fungicide were each put into petri dishes.
(§8) Cladosporium cladosporoides, Oligoporus placenta, Stachybotrys chartarum and Memnionella echinata were separately propagated on Luria agar to suppress sporulation and mycelial plugs were transferred upside down onto the petri dishes containing the growth medium.
(§9) A visual assessment was made of the surface of the petri dishes. The result recorded was the percentage of the surface that remained free of fungus. This was recorded as percentage activity
(§10) For each fungicide, a graph was drawn of percentage activity against concentration of fungicide in the growth medium. From this graph, the concentrations of fungicide required to achieve 50%, 80% and 95% activity was estimated. These figures are given in the results tables.
1. Stachybotrys chartarum; Results after 22 days at 25° C.

Memnionella echinata = assay: as above; details: after 23 days at 25° C.; for EC50: 552 h, read-out: Concentration required for 50% Activity
Description: as §7, §8, §9, §10
2. Memnionella echinata; Results after 23 days at 25° C.

[5] = test system: Cladosporium cladosporioides; assay: as above; details: for EC50: 624 h, read-out: Concentration required for 50% Activity; for EC50 / Concentration required for 80% Activity: after 26 days at 20° C.
Description: as §7, §8, §9, §10
3. Cladosporium cladosporioides; Results after 26 days at 20° C.

Oligoporus placenta = assay: as above
Description: as §7, §8, §9, §10
4. Oligoporus placenta; Results.

Stachybotrys chartarum [6] = assay: Synergy testing of 2-way mixtures, 24 well plates; details: S. chartarum; rate (FDL) 0.05 mg ai/l
Description: as §1, §2, §3, §4, §5, §6

Stachybotrys chartarum [7] = assay: Liquid culture assay on 24 well plates, solo ai (EC95/MIC); details: for EC95: 24° C., 3-6 days; for MIC: Stachybotrys chartarum, read-out: MIC Minimal Inhibition concentration
Description: as §2
(§11) Test method used: liquid culture assay on 24 well plates.
(§12) For solo (i.e. single) ai testing the formulated fungicide (100 ul) was filled into the 24 well plates (8 different rates: 100-0.05 mg ai/l final volume as described above) and 100 ul distilled water was added. Afterwards 800 ul of 0.3% PDA media was added to the plate. The spore suspension of the specific fungi was added to this media in advance containing approx. 100.000 spores/ml. The 24 well plates were sealed and incubated at 24° C.
(§13) Dependent on the growth properties of each organisms, the evaluation was done after 3 to 6 days, when the surface of the check well was covered with mycelium. The evaluation was performed by assessing the growth of the fungi related to the check growth. The results are expressed as % activity relative to the check (values of 0-100% growth). Afterwards the results were converted in % growth inhibition. EC95 values and also MIC (minimal inhibition concentration) values were derived for each compound.
(§14) For each solo compound a graph was drawn of percentage inhibition against the concentration of the fungicide. […] Also the concentration that gave the minimum inhibition concentration was derived as MIC value

Aureobasidium pullulans [8] = assay: as above; details: for EC95: 24° C., 3-6 days; for MIC: Aureobasidium pullulans, read-out: MIC Minimal Inhibition concentration
Description: as §2, §11, §12, §13, §14

Aspergillus niger [9] = assay: as above; details: for EC95: 24° C., 3-6 days; for MIC: Aspergillus niger, read-out: MIC Minimal Inhibition concentration
Description: as §2, §11, §12, §13, §14

Alternaria tenuissima = assay: as above; details: for EC95: 24° C., 3-6 days; for MIC: Alternaria tenuissima, read-out: MIC Minimal Inhibition concentration
Description: as §2, §11, §12, §13, §14

Penicillium citrinum [10] = assay: as above; details: for EC95: 24° C., 3-6 days; for MIC: Penicillium citrinum, read-out: MIC Minimal Inhibition concentration
Description: as §2, §11, §12, §13, §14

[11] = S. chartarum, rates 0-100 mg ai/l, mean values of n = 5
[12] = A. pullulans, rates 0-100 mg ai/l, mean values of n = 5
[13] = A. niger, rates 0-100 mg ai/l, mean values of n = 5
[14] = A. tenuissima, rates 0-100 mg ai/l, mean values of n = 5
[15] = P. citrinum, rates 0-100 mg ai/l, mean values of n = 5

SMILES | Concentration required for 95% Activity (Stachybotrys chartarum [4]) | EC50 (Stachybotrys chartarum [4]) | Concentration required for 80% Activity (Stachybotrys chartarum [4]) | EC50 (Memnionella echinata) | Concentration required for 80% Activity (Memnionella echinata) | Concentration required for 95% Activity [5] | EC50 [5] | Concentration required for 80% Activity [5] | Concentration required for 95% Activity (Oligoporus placenta) | EC95 (Stachybotrys chartarum [7]; S. chartarum) | EC95 (Aureobasidium pullulans [8]; A. pullulans) | EC95 (Aspergillus niger [9]; A. niger) | EC95 (Alternaria tenuissima; A. tenuissima) | EC95 (Penicillium citrinum [10]; P. citrinum) | MIC (Stachybotrys chartarum [7]; [11]) | MIC (Aureobasidium pullulans [8]; [12]) | MIC (Aspergillus niger [9]; [13]) | MIC (Alternaria tenuissima; [14]) | MIC (Penicillium citrinum [10]; [15]) | other results
CC1COC(Cn2cncn2)(c2ccc(Oc3ccc(Cl)cc3)cc2Cl)O1 (centres unmarked) [Difenoconazole] | 23 mg/L | 0.68 µg/mL (≈ 1.67 µM) | 3.5 mg/L | 5.4 µg/mL (≈ 13.3 µM) | 43 mg/L | 0.79 mg/L | 0.04 µg/mL (≈ 0.0985 µM) | 0.28 mg/L | <0.1 mg/L |  |  |  |  |  |  |  |  |  |  | inh % (DFZ alone) (Aureobasidium pullulans [1]; rate (DFZ) 0.05 mg ai/l, PPZ + DFZ test): 10%; inh % (DFZ alone) (Aureobasidium pullulans [1]; rate (DFZ) 0.2 mg ai/l, DFZ + FDL test): 70%; inh % (DFZ alone) (Aureobasidium pullulans [1]; rate (DFZ) 0.2 mg ai/l, DFZ + TBZ test, listed as DFZ): 70% and 90%; inh % (DFZ alone) (Aureobasidium pullulans [1]; rate (DFZ) 0.2 mg ai/l, PPZ + DFZ test): 70%; inh % (DFZ alone) (Aureobasidium pullulans [1]; rate (DFZ) 0.8 mg ai/l, DFZ + CDL test): 90%; inh % (DFZ alone) (Aureobasidium pullulans [1]; rate (DFZ) 0.8 mg ai/l, DFZ + TBZ test): 90%; inh % (DFZ alone) (Aureobasidium pullulans [1]; rate (DFZ) 1.6 mg ai/l, DFZ + CDL test): 90%; inh % (DFZ alone) (Aureobasidium pullulans [1]; rate (DFZ) 1.6 mg ai/l, DFZ + TBZ test): 90%; inh % (DFZ alone) (Aureobasidium pullulans [1]; rate (DFZ) 3.1 mg ai/l, DFZ + CDL test): 70%; inh % (DFZ alone) (Aureobasidium pullulans [1]; rate (DFZ) 3.1 mg ai/l, DFZ + FDL test): 70%; inh % (DFZ alone) (Aureobasidium pullulans [1]; rate (DFZ) 3.1 mg ai/l, DFZ + TBZ test): 70%; inh % (DFZ alone) (Aureobasidium pullulans [1]; rate (DFZ) 3.1 mg ai/l, PPZ + DFZ test): 50%; inh % (DFZ alone) (Aspergillus niger [2]; DFZ + TBZ test): 10%; inh % (DFZ alone) (Aspergillus niger [2]; PPZ + DFZ test): 30%; inh % (DFZ alone) (Penicillium citrinum [3]; rate (DFZ) 0.05 mg ai/l): 0%; inh % (DFZ alone) (Penicillium citrinum [3]; rate (DFZ) 0.2 mg ai/l): 10%; inh % (DFZ alone) (Penicillium citrinum [3]; rate (DFZ) 0.8 mg ai/l): 30%
N#Cc1c[nH]cc1-c1cccc2c1OC(F)(F)O2 [Fludioxonil] |  |  |  |  |  |  |  |  |  | 0.18 mg ai/l | >100 mg ai/l | >100 mg ai/l | 1.3 mg ai/l | 0.18 mg ai/l |  |  |  |  |  | inh % (FDL alone) (Stachybotrys chartarum [6]): 10%; inh % (FDL alone) (Aureobasidium pullulans [1]; rate (FDL) 0.8 mg ai/l): 10%; inh % (FDL alone) (Aureobasidium pullulans [1]; rate (FDL) 1.6 mg ai/l): 10%; inh % (FDL alone) (Aureobasidium pullulans [1]; rate (FDL) 3.1 mg ai/l): 10%; inh % (FDL alone) (Aureobasidium pullulans [1]; rate (FDL) 12.5 mg ai/l): 10%; inh % (FDL alone) (Aureobasidium pullulans [1]; rate (FDL) 50 mg ai/l): 10%; inh % (FDL alone) (Aureobasidium pullulans [1]; rate (FDL) 100 mg ai/l): 10%; inh % (FDL alone) (Aspergillus niger [2]; rate (FDL) 0.05 mg ai/l): 0%; inh % (FDL alone) (Aspergillus niger [2]; rate (FDL) 0.2 mg ai/l): 30%; inh % (FDL alone) (Aspergillus niger [2]; rate (FDL) 0.8 mg ai/l): 30%; inh % (FDL alone) (Aspergillus niger [2]; rate (FDL) 1.6 mg ai/l): 30%; inh % (FDL alone) (Aspergillus niger [2]; rate (FDL) 3.1 mg ai/l): 30%; inh % (FDL alone) (Aspergillus niger [2]; rate (FDL) 12.5 mg ai/l): 30%; inh % (FDL alone) (Aspergillus niger [2]; rate (FDL) 50 mg ai/l): 30%; inh % (FDL alone) (Aspergillus niger [2]; rate (FDL) 100 mg ai/l): 30%; MIC (Stachybotrys chartarum [7]): 0.2 µg/mL (≈ 0.806 µM); MIC (Aureobasidium pullulans [8]): > 100 µg/mL; MIC (Aspergillus niger [9]): > 100 µg/mL; MIC (Alternaria tenuissima): 1.6 µg/mL (≈ 6.45 µM); MIC (Penicillium citrinum [10]): 0.2 µg/mL (≈ 0.806 µM)
CCCC1COC(Cn2cncn2)(c2ccc(Cl)cc2Cl)O1 (centres unmarked) [Propiconazole] | 360 mg/L | 15 µg/mL (≈ 43.8 µM) | 49 mg/L | 88 µg/mL (≈ 257 µM) | >100 mg/L | 4.5 mg/L | 0.19 µg/mL (≈ 0.555 µM) | 1.7 mg/L | 0.4 mg/L |  |  |  |  |  |  |  |  |  |  | inh % (PPZ alone) (Penicillium citrinum [3]; rate (PPZ) 0.8 mg ai/l): 70%
c1ccc2[nH]c(-c3cscn3)nc2c1 [Thiabendazole] | 91 mg/L | 17 µg/mL (≈ 84.5 µM) | 49 mg/L | 28 µg/mL (≈ 139 µM) | 65 mg/L | 8 mg/L | 0.78 µg/mL (≈ 3.88 µM) | 3.5 mg/L | >5000 mg/L | 46 mg ai/l | 15 mg ai/l | 3.1 mg ai/l | >100 mg ai/l | 0.72 mg ai/l | 50 µg/mL (≈ 248 µM) | 50 µg/mL (≈ 248 µM) | 3.1 µg/mL (≈ 15.4 µM) | > 100 µg/mL | 0.8 µg/mL (≈ 3.98 µM) | inh % (TBZ alone) (Aureobasidium pullulans [1]; rate (TBZ) 12.5 mg ai/l): 70%; inh % (TBZ alone) (Aspergillus niger [2]; rate (TBZ) 1.6 mg ai/l): 10%
Cc1cc(C2CC2)nc(Nc2ccccc2)n1 [Cyprodinil] |  |  |  |  |  |  |  |  |  | 46 mg ai/l | >100 mg ai/l | 7.4 mg ai/l | >100 mg ai/l | >100 mg ai/l | 50 µg/mL (≈ 222 µM) | > 100 µg/mL | 12.5 µg/mL (≈ 55.5 µM) | > 100 µg/mL | > 100 µg/mL | inh % (CDL alone) (Aureobasidium pullulans [1]; rate (CDL) 0.8 mg ai/l): 0%; inh % (CDL alone) (Aureobasidium pullulans [1]; rate (CDL) 1.6 mg ai/l): 10%; inh % (CDL alone) (Aureobasidium pullulans [1]; rate (CDL) 3.1 mg ai/l): 10%; inh % (CDL alone) (Aureobasidium pullulans [1]; rate (CDL) 12.5 mg ai/l): 30%; inh % (CDL alone) (Aureobasidium pullulans [1]; rate (CDL) 50 mg ai/l): 30%; inh % (CDL alone) (Aureobasidium pullulans [1]; rate (CDL) 100 mg ai/l): 30%
